{
  "source": "patent US11267795B2",
  "about": "“Crystalline PPAR-delta agonist” (Reneo Pharmaceuticals, Inc., priority 2020, dated 2022)",
  "key": {"[1]": {"biological_target": "T1, PPARα (Homo sapiens, UniProt Q07869)", "T1 sequence (Q07869 1-468)": "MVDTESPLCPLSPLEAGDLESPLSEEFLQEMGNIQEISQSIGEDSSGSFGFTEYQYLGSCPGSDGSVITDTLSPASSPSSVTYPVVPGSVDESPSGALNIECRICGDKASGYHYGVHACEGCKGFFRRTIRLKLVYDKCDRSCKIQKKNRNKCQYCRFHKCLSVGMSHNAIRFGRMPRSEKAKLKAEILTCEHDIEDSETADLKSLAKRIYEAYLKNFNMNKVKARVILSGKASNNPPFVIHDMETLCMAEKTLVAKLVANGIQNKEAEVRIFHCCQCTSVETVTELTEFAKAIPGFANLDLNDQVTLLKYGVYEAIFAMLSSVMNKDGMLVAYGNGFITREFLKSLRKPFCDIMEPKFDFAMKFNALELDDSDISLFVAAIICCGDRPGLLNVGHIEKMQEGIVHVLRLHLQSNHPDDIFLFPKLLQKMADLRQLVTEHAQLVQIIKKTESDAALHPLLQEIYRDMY", "assay": "PPAR agonist activity in human cell lines expressing the three PPAR isotypes", "format": "cell-based", "procedure": "(§1) Compound I is a PPARS agonist that is useful in the methods of treatment described herein. In human cell lines expressing the three peroxisome proliferator-activated receptor (PPAR) isotypes, Compound I is a potent (EC50<100 nM) and selective human PPARS agonist (PPARα (EC50>10 μM) and PPARγ (EC50>10 μM))."}, "[2]": {"biological_target": "T2, PPARγ (Homo sapiens, UniProt P37231)", "T2 sequence (P37231 1-505)": "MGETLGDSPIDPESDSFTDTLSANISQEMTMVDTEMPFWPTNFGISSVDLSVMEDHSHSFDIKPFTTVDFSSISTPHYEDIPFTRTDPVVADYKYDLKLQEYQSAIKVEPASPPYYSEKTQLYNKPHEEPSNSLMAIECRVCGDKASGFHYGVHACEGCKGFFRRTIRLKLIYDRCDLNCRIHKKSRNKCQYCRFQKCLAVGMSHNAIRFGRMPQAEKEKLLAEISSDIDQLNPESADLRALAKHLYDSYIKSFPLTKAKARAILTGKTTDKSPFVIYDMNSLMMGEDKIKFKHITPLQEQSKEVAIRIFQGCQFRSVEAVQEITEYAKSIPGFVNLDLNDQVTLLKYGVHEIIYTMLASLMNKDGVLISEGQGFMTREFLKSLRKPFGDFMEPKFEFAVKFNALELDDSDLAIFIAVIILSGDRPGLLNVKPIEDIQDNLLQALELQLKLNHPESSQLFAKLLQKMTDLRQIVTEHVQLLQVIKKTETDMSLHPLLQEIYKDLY", "assay": "PPAR agonist activity in human cell lines expressing the three PPAR isotypes", "format": "cell-based", "procedure": "as §1"}, "[3]": {"biological_target": "T3, PPARδ (Homo sapiens, UniProt Q03181)", "T3 sequence (Q03181 1-441)": "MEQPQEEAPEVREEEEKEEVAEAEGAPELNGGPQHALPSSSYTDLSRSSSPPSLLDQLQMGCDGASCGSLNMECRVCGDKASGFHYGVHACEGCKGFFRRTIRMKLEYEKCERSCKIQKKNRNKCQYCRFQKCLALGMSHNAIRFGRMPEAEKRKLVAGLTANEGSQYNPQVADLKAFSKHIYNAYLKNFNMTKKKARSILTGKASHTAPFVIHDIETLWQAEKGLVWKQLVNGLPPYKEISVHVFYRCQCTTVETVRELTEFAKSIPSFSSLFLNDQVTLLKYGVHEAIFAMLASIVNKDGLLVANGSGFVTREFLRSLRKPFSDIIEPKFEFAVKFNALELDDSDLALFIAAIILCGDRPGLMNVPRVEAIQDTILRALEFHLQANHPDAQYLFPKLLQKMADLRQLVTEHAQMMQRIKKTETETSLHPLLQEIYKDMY", "assay": "PPAR agonist activity in human cell lines expressing the three PPAR isotypes", "format": "cell-based", "procedure": "as §1"}, "[4]": {"tested_on": "RXR", "assay": "Nuclear receptor activation in human cells expressing the receptor", "format": "cell-based"}, "[5]": {"biological_target": "T4, FXR (Homo sapiens, UniProt Q96RI1)", "T4 sequence (Q96RI1 1-486)": "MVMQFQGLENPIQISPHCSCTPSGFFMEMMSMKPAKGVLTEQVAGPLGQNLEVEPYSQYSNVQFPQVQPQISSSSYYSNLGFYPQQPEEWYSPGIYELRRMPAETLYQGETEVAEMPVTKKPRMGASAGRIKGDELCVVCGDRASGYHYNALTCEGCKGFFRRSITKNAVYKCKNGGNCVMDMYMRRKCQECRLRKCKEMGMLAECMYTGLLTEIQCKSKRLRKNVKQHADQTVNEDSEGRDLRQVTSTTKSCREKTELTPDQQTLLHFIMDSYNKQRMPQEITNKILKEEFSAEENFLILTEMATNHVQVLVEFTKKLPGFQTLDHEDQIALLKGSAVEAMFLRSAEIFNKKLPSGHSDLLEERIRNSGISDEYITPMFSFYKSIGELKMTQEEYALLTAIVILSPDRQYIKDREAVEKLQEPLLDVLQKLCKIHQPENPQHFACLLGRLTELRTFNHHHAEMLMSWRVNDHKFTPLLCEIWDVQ", "assay": "Nuclear receptor activation in human cells expressing the receptor", "format": "cell-based"}, "[6]": {"biological_target": "T5, LXRα (Homo sapiens, UniProt Q13133)", "T5 sequence (Q13133 1-447)": "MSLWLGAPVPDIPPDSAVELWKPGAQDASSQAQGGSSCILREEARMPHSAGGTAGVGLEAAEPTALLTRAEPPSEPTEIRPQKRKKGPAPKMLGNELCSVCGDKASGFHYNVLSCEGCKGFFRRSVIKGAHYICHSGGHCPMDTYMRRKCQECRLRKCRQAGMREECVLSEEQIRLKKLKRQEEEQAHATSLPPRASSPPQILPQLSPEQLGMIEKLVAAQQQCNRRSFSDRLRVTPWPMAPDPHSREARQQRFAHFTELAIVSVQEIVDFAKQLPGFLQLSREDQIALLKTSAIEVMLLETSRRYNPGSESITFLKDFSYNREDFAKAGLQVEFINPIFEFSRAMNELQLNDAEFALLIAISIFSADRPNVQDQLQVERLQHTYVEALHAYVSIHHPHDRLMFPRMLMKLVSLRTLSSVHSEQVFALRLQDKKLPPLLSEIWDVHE", "assay": "Nuclear receptor activation in human cells expressing the receptor", "format": "cell-based"}, "[7]": {"biological_target": "T6, LXRP (Homo sapiens, UniProt P55055)", "T6 sequence (P55055 1-460)": "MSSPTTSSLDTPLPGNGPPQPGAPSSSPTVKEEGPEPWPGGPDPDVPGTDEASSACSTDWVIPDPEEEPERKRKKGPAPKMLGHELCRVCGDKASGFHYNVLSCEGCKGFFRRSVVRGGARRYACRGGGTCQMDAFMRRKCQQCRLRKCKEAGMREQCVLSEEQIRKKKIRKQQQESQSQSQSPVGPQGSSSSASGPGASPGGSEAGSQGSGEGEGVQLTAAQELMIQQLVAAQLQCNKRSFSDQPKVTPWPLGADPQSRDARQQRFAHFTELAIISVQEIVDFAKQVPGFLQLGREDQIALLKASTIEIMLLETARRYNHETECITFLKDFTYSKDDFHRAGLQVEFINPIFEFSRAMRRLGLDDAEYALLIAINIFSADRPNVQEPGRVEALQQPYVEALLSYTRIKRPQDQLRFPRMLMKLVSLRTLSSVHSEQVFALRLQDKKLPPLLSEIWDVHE", "assay": "Nuclear receptor activation in human cells expressing the receptor", "format": "cell-based"}, "[8]": {"tested_on": "PPARS regulated genes (CPT1b, PGC-1α) in mice muscle", "assay": "In vivo expression of PPARδ regulated genes in mice muscle"}, "[9]": {"tested_on": "Angiopoietin-like 4 (ANGPTL4)", "assay": "In vivo expression of PPAR target gene in rat muscle"}, "[10]": {"details": "human cell lines expressing the PPAR isotypes"}},
  "data": [
    {"compound": "Cc1cc(OC/C=C(/c2ccc(F)cc2)c2ccc(C#CCN3CCOCC3)cc2)ccc1OCC(=O)O", "note": "[Compound I, (E)-2-(4-((3-(4-fluorophenyl)-3-(4-(3-morpholinoprop-1-yn-1-yl)phenyl)allyl)oxy)-2-methylphenoxy)acetic acid]", "values": [
      {"measurement": "type of agonism at PPARα", "setting": "[1]", "result": "partial agonist"},
      {"measurement": "EC50", "setting": "[1]; [10]", "result": "> 10", "unit": "µM"},
      {"measurement": "type of agonism at PPARγ", "setting": "[2]", "result": "partial agonist"},
      {"measurement": "EC50", "setting": "[2]; [10]", "result": "> 10", "unit": "µM"},
      {"measurement": "type of agonism at PPARδ", "setting": "[3]", "result": "full PPARS agonist"},
      {"measurement": "EC50", "setting": "[3]; [10]", "result": "< 0.1", "unit": "µM"},
      {"measurement": "activation of nuclear receptor RXR", "setting": "[4]", "result": "has not resulted in activation"},
      {"measurement": "activation of nuclear receptor FXR", "setting": "[5]", "result": "has not resulted in activation"},
      {"measurement": "activation of nuclear receptor LXRα", "setting": "[6]", "result": "has not resulted in activation"},
      {"measurement": "activation of nuclear receptor LXRP", "setting": "[7]", "result": "has not resulted in activation"},
      {"measurement": "expression of PPARδ regulated genes (CPT1b, PGC-1α)", "setting": "[8]", "result": "altered the expression patterns"},
      {"measurement": "expression of Angiopoietin-like 4 (ANGPTL4)", "setting": "[9]", "result": "increased the expression"}
    ]}
  ]
}
